From US20180353461A1, “USE OF CANNABINOIDS AS CERAMIDE-GENERATING ANTICANCER AGENTS IN TUMORS OF THE HEMATOPOIETIC AND LYMPHOID TISSUES” (priority 2014, published 2018)

Assays:
B-cells (CD19+) = experiment: Cell viability of B-cells (MTT); assay type: cell-based, human
[1] = test system: KG1 (acute myelogenous leukemia) and HL60 (Human promyelocytic leukemia cells) cell lines; experiment: Cell viability of AML cell lines (MTT / WST-1 assay); assay type: cell-based; conditions: for cell viability of KG1 and HL60 cell lines as compared to untreated control cells: WIN-55 0.5-50 uM, JWH-133 0.05-1 mM; for concentration from which the cell viability decrease occurs with statistically significant data: FIG. 12 / FIG. 13
Method: Human acute myeloid leukemia cell line KG-1 and human acute promyelocytic leukemia cell line HL60 (American Type Culture Collection) were cultured RPMI 1640 medium (Gibco™, Invitrogen, Barcelona, Spain) with 2 mM L-glutamine, 100 IU/m1 penicillin and 100 ug/ml streptomycin (all from Sigma-Aldrich, St. Louis, Mo., USA), and supplemented with 10% (HL60 cell line) or 20% (KG1 cell line and human primary cells) fetal bovine serum [(FBS), [Thermo Fisher Scientific (Waltham, Mass., USA)] in a humidified atmosphere of CO2/air (5%/95%).
The cannabinoid agonists WIN-55,212-2 mesylate ((R)-(+)-[2,3-dihydro-5-methyl-3-(4-morpholinylmethyl)-pyrrolo-[1,2,3]-1,4-benzoxazin-6-yl]-1-naphthalenylmethanone mesylate) and JWH-133 ((6aR,10aR)-3-(1,1-Dimethylbutyl)-6a,7,10,10a-tetrahydro-6,6,9-trimethyl-6H-dibenzo [b,d] pyran) were purchased from Tocris Bioscience (Bristol, UK) and they was added in the indicated concentrations to culture medium for different incubation periods. Control cells were cultured with the relevant amounts of DMSO.
(§1) Cells lines, CD34+ cells and blast were cultured in 96-well plates (5×10e5 cells per well) with the addition of the indicated concentrations of WIN 55,212-2 or JWH-133 in DMSO or with the solvent alone in triplicate. Also we add myoricin together the cannabinoid WIN-55 to see if this effect reversed. Cell viability was determined by the WST-1 [2-(4-lodophenyl)-3-(4-nitrophenyl)-5-(2,4-disulfophenyl)-2H-tetrazolium] assay as per the manufacturer's instructions (Dojindo Molecular Technologies). Optical densities were measured at 450 nm using a plate reader Multiskan™ Go Microplate (Thermo Fisher Scientific, Waltham, Mass., USA).
Firstly, we assessed the effect of cannabinoids WIN-55 and JWH-133 on cell viability. To this end, the cells were treated with increasing concentrations of cannabinoids, WIN-55 (0.5-50 uM) and JWH-133 (0.05-1 mM), for 18 and 48, and viability was analyzed by MTT assays.

[2] = test system: CD34+ hematopoietic stem cells; experiment: Cell viability of CD34+ hematopoietic stem cells, Example 2 (MTT); assay type: cell-based, human
Description: Human primary cells were obtained from LMA patients' bone marrow (BM) and healthy donors' peripheral blood (PB). Hematopoietic progenitor cells (CD34+) were isolated from leukaphesesis samples, and B (CD19+) and T (CD3+) lymphocytes from buffy coats by positive immunomagnetic separation in the AutoMACS pro separator (Miltenyi Biotec, Bergisch Gladbach, Germany). For this purpose CD34-, CD19- and CD3-MACS microbead Human Kit (Miltenyi Biotec, Bergisch Gladbach, Germany).
as §1
Stem cells were treated with WIN-55 or JWH-133 and cell viability was analyzed using MTT assay.

HL60 cells = experiment: Mitochondrial membrane potential in HL60 cells (TMRE, flow cytometry); assay type: cell-based, human
Method: Mitochondrial membrane potential and superoxide detection Cells (10e6 cells per assay) were treated with a concentration of WIN-55 for 15, 30, 45 and 60 min at 37° C. Fluorochromes 10 μM TMRM [(tetramethylrhodamine-ethyl-ester-perchlorate), Santa Cruz Biotechnology Inc.] to detect membrane potential, or 5 μM MitoSOX [Molecular Probes (Invitrogen)] to detect mitochondrial superoxide, were added for the last 15 min of treatment. CCCP (uncoupler of oxidative phosphorylation) or H2O2 (oxidant agent) was used as a positive control of the techniques respectively (Labbe et al., 2008). The fluorescence detection of TMRM was measured for flow citometry. Fluorescent intensity was quantified and analyzed using Infinicyt™ Software (Cytognos, Salamanca, Spain).
To delve into the processes that participate in cannabinoid-induced apoptosis, we evaluated the potential of mitochondrial membrane potential in HL60 cells after treatment with WIN-55, at indicated times, using TMRE assay by flow citometry. We observed that cannabinoids induced a drop of Δψm in HL60 cells (FIG. 20a). The loss of potential started as early as 15 min after exposure to the cannabinoid, and continued decreasing over time. Also the ROS increase by MitoSOX assay was observed, specially in HL60 cells after exposure to WIN-55 (FIG. 20b).

| SMILES | viability of B-cells (B-cells (CD19+)) | cell viability of KG1 and HL60 cell lines as compared to untreated control cells ([1]; 18 h) | concentration from which the cell viability decrease occurs with statistically significant data [1] [µM] | cell viability of CD34+ hematopoietic stem cells [2] | most sensitive AML cell line ([1]; 18 h) | time after exposure at which the loss of potential started (HL60 cells; HL60) [min] | mitochondrial membrane potential (Δψm) (HL60 cells; HL60, TMRE, flow cytometry) |
| --- | --- | --- | --- | --- | --- | --- | --- |
| CCCC(C)(C)c1ccc2c(c1)OC(C)(C)[C@@H]1CC=C(C)C[C@@H]21 [JWH-133, (6aR,10aR)-3-(1,1-Dimethylbutyl)-6a,7,10,10a-tetrahydro-6,6,9-trimethyl-6H-dibenzo [b,d] pyran] | decreased viability | significantly reduced | ≥ 500 | remains unaffected | – | – | – |
| CS(=O)(=O)O.Cc1c(C(=O)c2cccc3ccccc23)c2cccc3c2n1[C@H](CN1CCOCC1)CO3 [WIN-55, (R)-(+)-[2,3-dihydro-5-methyl-3-(4-morpholinylmethyl)-pyrrolo-[1,2,3]-1,4-benzoxazin-6-yl]-1-naphthalenylmethanone mesylate] | decreased viability | significantly reduced | ≥ 500 | remains unaffected | HL60 was the most sensitive | 15 | drop of Δψm |
